Assay results taken from patent publication US11530132B2, “Composition comprising porous silica particles carrying a cell fate modulating factor” (LEMONEX INC., priority 2017, dated 2022).

Tests used:
[1] = system: nerve cells or fibroblasts; assay: Transfection rate of factors carried in DDV; format: cell-based; settings: factor carried in DDV
[2] = system: nerve cells or fibroblasts; assay: Forward differentiation rate with factors carried in DDV; format: cell-based; settings: factor carried in DDV
Description: (§1) This process was repeated 3 times.
as §1

mES cells = assay: Neural induction of mES cells, quantitative image analysis (Tuj1-positive cells, axon length); format: cell-based, mouse; settings: after neural induction; FIG. 32
Experimental: Neural induction of mES cells was conducted by adding RA or RA/AMSN19 complex. In particular, 10^−6M RA or 25 μg of RA/AMSN19 (corresponding to 3×10^−6M including RA) was used for treatment of mES cells in a complete mES medium for 2 days. A non-induction group was cultured as a negative control group. After 2 days, the medium was replaced with a new nerve cell culture medium, N2B27. The medium was replaced on alternate days.
For quantitative analysis, 5 representative fluorescent images were obtained from different immunostain samples, respectively. The images were analyzed by an ImageJ program. For Tuj1-positive cell analysis, the number of florescent cells expressing Tuj1 more than a critical value was measured from each image, followed by calculating a ratio of the measured number to a total number of nuclei. For measurement of a length of axon, axons contained in 50 cells in each sample were analyzed by a line measurement device. In consideration of 100 representative axons, an average value was calculated.

Row | SMILES | Transfection rate [1] | Forward differentiation rate [2] | Cell conversion efficiency (rate of Tuj1 positive cells among entire cells survived) (mES cells)
1 | Nc1ncn([C@@H]2O[C@H](CO)[C@@H](O)[C@H]2O)c(=O)n1 [5-azacytidine] | 50-95% | 5-30% | –
2 | CC1=C(/C=C/C(C)=C/C=C/C(C)=C/C(=O)O)C(C)(C)CCC1 [RA, retinoic acid] | – | – | about 30%
